We go through 2 molecules from US20250177392A1, “BROAD SPECTRUM INHIBITORS OF CYTOMEGALOVIRUS” (MICROBIOTIX, INC., priority 2022, published 2025).

A short description of data set [1]: Cytotoxicity (CC50) against Hela cells for 3 d. In kind it is cell-based. The following applies: human.
The subject of another data set is AD169^R (IE1 expression). The data set can be described thus: Western blot (immunoblot) of IE1 expression in AD169^R-infected cells. In kind it is cell-based, Human cytomegalovirus. As for the experimental part: The molecular weight markers and respective proteins are indicated.
FIGS. 12A and B are Western Blot assays showing that MBXC-4336 limits expression of IE1 in fibroblasts and epithelial cells. Total cell lysates from AD169^R-infected (MOI 0.2) NHDF (A) and ARPE-19 (B) cells pre-treated with DMSO, MBX-4336 (0, 1, 5, 10, or 20 μM), or heparin (50 μg/mL) collected at 48 hpi were subjected to Western blot analysis using a rabbit anti-IE-1 antibody (lanes 1-7) and an anti-GAPDH antibody (lanes 8-14) as a loading control. The molecular weight markers and respective proteins are indicated.
Total cell lysates from virus infected NHDF cells treated with compounds were created through SDS-lysis (10^4/100 uL of 1% SDS) of at least three rounds of heating at 95° C. for 3 min and vigorous agitation. The total cell lysates were resolved using an SDS-polyacrylamide gel (12.5%), transferred to a PVDF membrane using a semi-dry apparatus. The membrane was then incubated with 1% BSA/PBS for 1 hr at room temperature followed by incubation with anti-IE1 and anti-GAPDH. Finally, the respective secondary antibody conjugated with HRP was incubated with membrane followed by detection using ECL reagents (Millipore).
Next, inhibition of the expression of IE1 in AD169^R-infected cells treated with MBX-4992 was examined by immunoblot analysis (FIG. 4E). […] Collectively, these findings further indicate that MBX-4992 effectively prevents the expression of the immediate-early genes during a CMV infection.

Another data set concerns HSV-1 E-377. Kind of data set: Herpes virus panel neutralization, HSV-1. It counts as cell-based, Herpes simplex virus 1. As for the experimental part: To determine the specificity of MBX-4992, additional neutralization experiments were conducted using a panel of herpes viruses performed in the presence of MBX-4992. […] Collectively, the antiviral activity of MBX-4992 is equivalent to that of GCV indicating specific inhibition of CMV replication.

Data set [2] has as its system AD169^R CMV virus. The data set can be described thus: Plaque reduction (dissemination) assay, prophylactic treatment. It counts as cell-based, Human cytomegalovirus. As for the experimental part:
(§1) FIG. 8A-H are fluorescence images (A & B) and graphs showing that NAPA compounds MBX-4992 and MBXC-4336 work in both prophylactic and therapeutic settings to inhibit HCMV infection. ARPE-19 cells (A to D) and NHDF cells (E and F) treated with increasing concentrations (0, 1, 5, 20, and 50 μM) of MBX-4992, MBXC-4336, or ganciclovir (2.5 μM) were infected with AD169^R (MOI 0.025) and analyzed for viral plaques of >5,000 μm^2 (C and E) and >10,000 μm^2 (D and F) based on GFP fluorescence. The representative images of plaques from AD169^R-infected ARPE-19 cells treated MBX-4992, MBXC-4336, ganciclovir are shown (A and B). MBX-4992, MBXC-4336 (G and H), and ganciclovir treatment at 48 hpi of AD169^R-infected ARPE-19 cells (MOI 0.025) were analyzed for virus plaques >5,000 μm^2 and >10,000 μm^2 at 10 dpi. The normalized plaque number was designated to be 100 based on plaques from DMSO treated cells. Statistical tests were performed using ordinary one-way ANOVA with multiple comparisons to DMSO treated cells as a control and a Dunnett's post-test; *, p<0.05; **, p<0.01; ***, p<0.001; ****, p<0.0001.
For the prophylactic treatment analysis, the plaque assay was performed on ARPE-19 and NHDF cells (4×10^4) in a 24-well plate. The cells were pretreated for 1 hour with either MBX-4992 or MBXC-4336 (1-50 μM), DMSO, or ganciclovir (2.5 μM) and followed by virus infection with AD169^R. Following a 2-hour incubation at 37° C., the inoculum was removed and cells were overlaid with 1% low melt sea agarose. Upon solidification of the agarose, MBX-4992, MBXC-4336, DMSO, or ganciclovir in media was added at the indicated concentration. The drugs were replaced every 3 days. The cells were examined using Brightfield and GFP fluorescence to quantify the number and size of virus plaques using a Celigo Cytometer at 10 dpi.
To address whether NAPA compounds can limit virus dissemination in epithelial cells, we analyzed the inhibitory properties of MBX-4992 and MBXC-4336 using a plaque reduction assay by designating a cluster of virus infected cells as a virus plaque (Parsons et al., Antivir. Res., 193:105124 (2021)) The results are shown in FIG. 8A-H.
To evaluate the prophylactic function of the NAPA compounds, ARPE-19 cells and NHDF cells treated with DMSO, MBX-4992, MBXC-4336 (0-50 μM), or ganciclovir (2.5 μM) were infected with AD169^R CMV virus and analyzed for virus plaques at 10 dpi based on GFP fluorescence (FIG. 8A-F). A cluster of virus infected cells was designated a viral plaque based on an average cluster area of 5,000 μm^2 or 10,000 μm^2 (FIG. 8A-B) using a Celigo cytometer.

The test system of data set [3] is AD169^R CMV virus. The data set can be described thus: Plaque reduction assay, therapeutic treatment at 48 hpi. The following applies: Human betaherpesvirus 5, AD169, ARPE-19, read-out: IC50 of plaque reduction (>5,000 μm^2 and >10,000 μm^2). It counts as cell-based, Human cytomegalovirus. As for the experimental part:
as §1
For therapeutic treatment, ARPE-19 cells (4×10^4) were plated in a 24-well plate. […] The cells were examined using brightfield and YFP fluorescence to quantify the number and plaques using the Celigo Cytometer at 14. […]

Setting [4] is: Human betaherpesvirus 5, AD169, ARPE-19, read-out: IC50 of virus plaque reduction.
Setting [5] is: Human betaherpesvirus 5, AD169, Fibroblast, read-out: IC50 of virus plaque reduction.

The term CC50 denotes the concentration at which the toxic effect on the cells reaches its halfway point. Low values mean greater toxicity to the cells, high ones lower toxicity to the cells. By IC50 is commonly meant the point on the concentration scale where inhibition reaches its midpoint.

For the molecule `Cc1nc(Nc2ccc(NC(=O)c3ccco3)cc2)cc(N2CCCC2)n1` [MBX-4992], the half-maximal cytotoxic concentration (CC50) at 3 d in data set [1] was > 100 µM. For the same molecule, the “IE1 expression by immunoblot” value in the data set with AD169^R (IE1 expression) (NHDF cells, 24 hpi, MBX-4992 1-10 μM, ganciclovir 5 μM, convallotoxin 0.01 μM) is “concentration dependent decrease in IE1 expression”. For the same molecule, the SI in the data set on HSV-1 E-377 is reported as <2. Also, the IC50 in the data set on HSV-1 E-377 (Human alphaherpesvirus 1) was > 30 µM; in the data set on AD169^R CMV virus [2] (setting [4]), 6.5 µM; in the data set on AD169^R CMV virus [2] (setting [5]), 12 µM; in the data set with AD169^R CMV virus [3], ~9 µM.
In the case of `Cc1nc(Nc2cccc(NC(=O)c3ccco3)c2)cc(N2CCCCC2)n1` [MBXC-4336], the “IE1 expression by immunoblot” value in the data set on AD169^R (IE1 expression) (NHDF and ARPE-19 cells, 48 hpi (FIG. 12)) is listed as “effectiveness of MBXC-4336 was validated”. Also, the IC50 in the data set on AD169^R CMV virus [2] (setting [4]) is 1.7 µM; in the data set with AD169^R CMV virus [2] (setting [5]), 4 µM; in the data set on AD169^R CMV virus [3], ~9 µM.
